Source: ChEMBL document CHEMBL1201862, “PubChem BioAssay data set” (2004)
The source made the active and inactive calls.

Experiments:
[1] = target: T1, Protein skinhead-1 (Caenorhabditis elegans, UniProt P34707); type: functional
T1 sequence (P34707 whole entry): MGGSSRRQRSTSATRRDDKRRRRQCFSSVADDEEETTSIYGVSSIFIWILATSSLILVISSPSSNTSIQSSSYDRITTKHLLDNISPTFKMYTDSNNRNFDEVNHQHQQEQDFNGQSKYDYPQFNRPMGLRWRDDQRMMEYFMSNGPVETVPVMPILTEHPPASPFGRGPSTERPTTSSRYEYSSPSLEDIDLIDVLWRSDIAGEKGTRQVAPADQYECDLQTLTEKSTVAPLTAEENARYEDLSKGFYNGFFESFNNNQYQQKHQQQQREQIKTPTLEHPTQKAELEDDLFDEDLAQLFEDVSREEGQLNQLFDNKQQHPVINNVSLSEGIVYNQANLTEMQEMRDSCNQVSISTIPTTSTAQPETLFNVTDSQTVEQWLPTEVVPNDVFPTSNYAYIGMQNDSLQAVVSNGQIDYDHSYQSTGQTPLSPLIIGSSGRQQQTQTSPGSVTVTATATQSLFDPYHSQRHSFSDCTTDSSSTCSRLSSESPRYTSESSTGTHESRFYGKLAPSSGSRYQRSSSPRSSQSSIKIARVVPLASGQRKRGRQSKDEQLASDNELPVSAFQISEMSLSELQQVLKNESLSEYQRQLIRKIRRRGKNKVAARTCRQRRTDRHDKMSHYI

[2] = target: COUP transcription factor 2 (Homo sapiens, UniProt P24468); test: Luminescence-based cell-based high throughput dose response assay to identify inhibitors of COUP-TFII (NR2F2).; type: functional;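 note: HEK293 cells transiently cotransfected with COUP-TFII expression vector and reporter; luciferase reporter luminescence driven by COUP-TFII from the pX2-168 reporter plasmid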
Chain of COUP transcription factor 2 (P24468 whole entry): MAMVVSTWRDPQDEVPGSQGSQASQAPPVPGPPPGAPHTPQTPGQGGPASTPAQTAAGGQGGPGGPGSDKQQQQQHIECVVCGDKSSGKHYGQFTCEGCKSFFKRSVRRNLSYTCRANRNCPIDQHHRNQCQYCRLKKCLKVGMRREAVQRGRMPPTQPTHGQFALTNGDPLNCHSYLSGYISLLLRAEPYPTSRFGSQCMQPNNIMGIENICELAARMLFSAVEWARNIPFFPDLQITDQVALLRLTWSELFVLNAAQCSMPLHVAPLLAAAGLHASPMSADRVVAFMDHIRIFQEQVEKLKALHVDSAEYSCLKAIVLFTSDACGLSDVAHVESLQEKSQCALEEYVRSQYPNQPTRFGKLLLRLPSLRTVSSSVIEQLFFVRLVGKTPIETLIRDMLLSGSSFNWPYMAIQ

[3] = potency of ADAM10 substrate cleavage blockers – biochemical, QFRET, dose response (AID 743254);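 note: ADAM10 enzyme with the DM2 quenched FRET peptide as substrate; EDANS fluorescence gain as the protease cuts the substrate; inhibitor potency against ADAM10 proteolytic activity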
[4] = target: Disintegrin and metalloproteinase domain-containing protein 17 (Homo sapiens, UniProt P78536); test: inhibition of ADAM17 substrate cleavage – biochemical, quenched FRET substrate, counter-screen for ADAM10 exosite inhibitor project, dose response (AID 743253)
Chain of Disintegrin and metalloproteinase domain-containing protein 17 (P78536 whole entry, the tested form may be a part): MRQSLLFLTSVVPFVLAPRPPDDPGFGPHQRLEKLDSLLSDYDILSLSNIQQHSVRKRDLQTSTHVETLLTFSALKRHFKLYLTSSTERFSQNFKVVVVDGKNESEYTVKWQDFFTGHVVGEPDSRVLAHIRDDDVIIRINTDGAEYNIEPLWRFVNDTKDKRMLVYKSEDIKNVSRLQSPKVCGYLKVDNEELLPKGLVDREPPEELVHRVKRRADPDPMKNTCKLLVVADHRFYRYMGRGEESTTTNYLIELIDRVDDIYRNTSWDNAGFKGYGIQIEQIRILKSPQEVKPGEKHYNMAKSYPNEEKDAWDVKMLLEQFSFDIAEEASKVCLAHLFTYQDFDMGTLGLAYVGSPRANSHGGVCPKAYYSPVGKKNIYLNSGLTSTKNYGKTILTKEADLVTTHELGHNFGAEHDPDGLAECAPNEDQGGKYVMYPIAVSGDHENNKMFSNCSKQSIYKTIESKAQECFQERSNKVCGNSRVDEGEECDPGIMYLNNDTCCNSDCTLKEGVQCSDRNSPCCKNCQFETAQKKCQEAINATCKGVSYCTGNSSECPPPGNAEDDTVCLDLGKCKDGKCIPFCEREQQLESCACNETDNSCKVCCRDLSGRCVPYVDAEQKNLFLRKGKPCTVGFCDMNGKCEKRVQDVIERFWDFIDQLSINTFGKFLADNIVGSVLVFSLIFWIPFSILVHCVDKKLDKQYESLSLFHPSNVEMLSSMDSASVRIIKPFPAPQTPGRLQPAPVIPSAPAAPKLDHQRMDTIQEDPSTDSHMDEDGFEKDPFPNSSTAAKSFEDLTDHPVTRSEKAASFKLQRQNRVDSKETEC

[5] = system: HEK293; test: EBV LMP1 TES2 canonical NF-kB signalling blockers – cell-based, HEK293, luciferase, cherry-pick, dose response (AID 588343); type: functional; details: Homo sapiens
[6] = target: T2, Latent membrane protein 1 (Human herpesvirus 4 (strain B95-8), UniProt P03230); test: LMP1 TES1 pathway selectivity over dsRED control – imaging, HEK293T, dual-color eGFP/dsRED, cherry-picks, selectivity assay for LMP1 NF-kB inhibitor project, dose response (AID 588398); type: functional, cell-based
T2 sequence (P03230 whole entry): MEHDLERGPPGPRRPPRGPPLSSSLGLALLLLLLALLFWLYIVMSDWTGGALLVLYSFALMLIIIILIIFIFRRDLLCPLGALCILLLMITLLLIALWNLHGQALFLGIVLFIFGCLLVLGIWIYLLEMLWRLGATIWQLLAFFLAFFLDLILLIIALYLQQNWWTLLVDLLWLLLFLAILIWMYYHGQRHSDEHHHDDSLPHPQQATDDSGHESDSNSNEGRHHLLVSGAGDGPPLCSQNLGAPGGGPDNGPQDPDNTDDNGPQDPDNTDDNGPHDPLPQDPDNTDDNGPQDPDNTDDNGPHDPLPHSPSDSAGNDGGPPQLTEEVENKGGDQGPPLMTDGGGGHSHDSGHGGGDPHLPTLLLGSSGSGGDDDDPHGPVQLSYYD

[7] = target: Endoplasmic reticulum aminopeptidase 1 (Homo sapiens, UniProt Q9NZ08); test: inhibition of human ERAP1 enzyme activity – biochemical, cherry-pick, set 2, plate reader, dose response (AID 743314)
Chain of Endoplasmic reticulum aminopeptidase 1 (Q9NZ08 whole entry): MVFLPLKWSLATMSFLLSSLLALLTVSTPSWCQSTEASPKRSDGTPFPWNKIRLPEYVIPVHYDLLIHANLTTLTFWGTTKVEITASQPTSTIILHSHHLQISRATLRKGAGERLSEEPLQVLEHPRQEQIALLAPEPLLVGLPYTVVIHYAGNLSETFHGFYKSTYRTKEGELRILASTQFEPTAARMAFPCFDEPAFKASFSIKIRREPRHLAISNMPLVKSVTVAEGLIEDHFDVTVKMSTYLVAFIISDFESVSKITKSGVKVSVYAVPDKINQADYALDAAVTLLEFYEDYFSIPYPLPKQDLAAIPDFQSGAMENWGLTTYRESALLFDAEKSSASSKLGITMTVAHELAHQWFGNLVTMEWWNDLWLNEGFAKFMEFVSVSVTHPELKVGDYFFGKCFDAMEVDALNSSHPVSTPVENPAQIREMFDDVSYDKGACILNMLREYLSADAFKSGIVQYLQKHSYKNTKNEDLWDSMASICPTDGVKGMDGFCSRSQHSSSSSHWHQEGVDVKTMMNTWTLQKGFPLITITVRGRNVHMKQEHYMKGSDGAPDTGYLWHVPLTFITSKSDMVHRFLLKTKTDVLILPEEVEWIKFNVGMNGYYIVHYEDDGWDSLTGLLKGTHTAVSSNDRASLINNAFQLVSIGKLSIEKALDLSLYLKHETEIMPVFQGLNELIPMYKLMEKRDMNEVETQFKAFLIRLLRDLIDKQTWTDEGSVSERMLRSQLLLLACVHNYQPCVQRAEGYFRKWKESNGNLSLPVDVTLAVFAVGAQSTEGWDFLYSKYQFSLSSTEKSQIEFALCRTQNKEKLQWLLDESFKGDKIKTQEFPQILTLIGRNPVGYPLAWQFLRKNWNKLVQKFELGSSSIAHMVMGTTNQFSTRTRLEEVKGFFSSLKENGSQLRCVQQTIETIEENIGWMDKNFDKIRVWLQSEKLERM

[8] = target: Fructose-bisphosphate aldolase (Mycobacterium tuberculosis, UniProt P9WQA3); test: Fluorescence-based biochemical high throughput dose response assay for inhibitors of the fructose-bisphosphate aldolase (FBA) of M. tuberculosis.; type: functional
Chain of Fructose-bisphosphate aldolase (P9WQA3 whole entry): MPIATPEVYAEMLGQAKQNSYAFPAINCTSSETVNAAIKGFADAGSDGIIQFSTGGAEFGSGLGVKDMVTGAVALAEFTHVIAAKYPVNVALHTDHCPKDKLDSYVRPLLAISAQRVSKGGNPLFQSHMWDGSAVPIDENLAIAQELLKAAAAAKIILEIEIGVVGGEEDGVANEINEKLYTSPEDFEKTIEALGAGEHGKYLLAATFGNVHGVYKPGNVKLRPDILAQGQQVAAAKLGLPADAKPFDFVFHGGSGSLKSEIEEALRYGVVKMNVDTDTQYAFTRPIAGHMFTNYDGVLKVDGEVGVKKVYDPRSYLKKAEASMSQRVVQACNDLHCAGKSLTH

[9] = target: T3, Oxysterols receptor LXR-beta (Homo sapiens, UniProt P55055); type: functional, cell-based
T3 sequence (P55055 whole entry): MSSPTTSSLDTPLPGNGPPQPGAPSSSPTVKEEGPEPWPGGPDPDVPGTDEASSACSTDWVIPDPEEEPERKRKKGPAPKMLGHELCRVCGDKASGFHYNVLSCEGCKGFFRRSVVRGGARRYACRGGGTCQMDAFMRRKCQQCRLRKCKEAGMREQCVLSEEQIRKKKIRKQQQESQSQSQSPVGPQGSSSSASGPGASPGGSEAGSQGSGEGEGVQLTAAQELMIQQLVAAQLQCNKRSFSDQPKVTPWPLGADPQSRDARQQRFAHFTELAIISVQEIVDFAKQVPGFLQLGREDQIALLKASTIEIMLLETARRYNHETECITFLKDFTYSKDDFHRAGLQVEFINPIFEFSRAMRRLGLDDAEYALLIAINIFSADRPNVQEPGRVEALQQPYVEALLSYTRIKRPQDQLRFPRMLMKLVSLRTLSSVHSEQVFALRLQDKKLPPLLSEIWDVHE

[10] = cells
[11] = cells; type: functional, cell-based
[12] = target: T4, Nuclear receptor subfamily 0 group B member 1 (Homo sapiens, UniProt P51843); type: functional, cell-based;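 note: HEK293T cells transfected with SF-1 and DAX-1 plus StAR promoter luciferase reporter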
T4 sequence (P51843 whole entry): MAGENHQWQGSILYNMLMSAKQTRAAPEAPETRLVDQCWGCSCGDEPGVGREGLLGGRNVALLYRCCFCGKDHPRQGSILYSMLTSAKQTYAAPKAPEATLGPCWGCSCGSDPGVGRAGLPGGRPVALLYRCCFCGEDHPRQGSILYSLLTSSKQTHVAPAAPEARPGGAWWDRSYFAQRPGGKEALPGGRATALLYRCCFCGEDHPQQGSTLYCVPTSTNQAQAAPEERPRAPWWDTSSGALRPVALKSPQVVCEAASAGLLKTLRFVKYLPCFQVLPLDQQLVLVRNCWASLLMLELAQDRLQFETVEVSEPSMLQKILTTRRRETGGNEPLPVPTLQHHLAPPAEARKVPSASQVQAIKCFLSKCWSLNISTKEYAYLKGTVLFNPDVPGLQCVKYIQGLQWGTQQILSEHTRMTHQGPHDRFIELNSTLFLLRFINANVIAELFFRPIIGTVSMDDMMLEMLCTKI

[13] = target: T3, Oxysterols receptor LXR-beta; type: functional, cell-based; remark: listed apart in the source
[14] = cells; type: functional, cell-based; remark: listed apart in the source
[15] = target: T5, Trace amine-associated receptor 1 (Homo sapiens, UniProt Q96RJ0); test: Fluorescence-based cell-based high throughput dose response assay to identify agonists of the human trace amine associated receptor 1 (TAAR1).; type: functional
T5 sequence (Q96RJ0 whole entry): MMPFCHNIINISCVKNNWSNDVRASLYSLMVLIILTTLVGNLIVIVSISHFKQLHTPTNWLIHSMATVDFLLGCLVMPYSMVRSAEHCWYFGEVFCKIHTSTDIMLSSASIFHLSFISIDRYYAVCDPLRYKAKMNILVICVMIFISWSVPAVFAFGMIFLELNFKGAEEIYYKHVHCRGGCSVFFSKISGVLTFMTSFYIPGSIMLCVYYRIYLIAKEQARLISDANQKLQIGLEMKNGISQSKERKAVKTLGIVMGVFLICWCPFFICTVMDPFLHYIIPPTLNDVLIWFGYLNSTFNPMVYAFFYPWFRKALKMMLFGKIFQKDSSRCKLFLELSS

[16] = target: T5, Trace amine-associated receptor 1; test: Counterscreen for agonists of the human trace amine associated receptor 1 (hTAAR1): Fluorescence-based cell-based high throughput dose response assay to identify hTAAR1 agonist that also desensitize TAAR1 receptor response.; type: functional
[17] = cells; type: functional, cell-based; remark: listed apart in the source
[18] = target: Cytochrome P450 2C19 (Homo sapiens, UniProt P33261); test: Cytochrome panel assay with activity outcomes. Panel member name: p450-cyp2c19 Compounds with AC50 equal or less than 10 uM are considered active; type: functional; details: read-out: AC50
Chain of Cytochrome P450 2C19 (P33261 whole entry): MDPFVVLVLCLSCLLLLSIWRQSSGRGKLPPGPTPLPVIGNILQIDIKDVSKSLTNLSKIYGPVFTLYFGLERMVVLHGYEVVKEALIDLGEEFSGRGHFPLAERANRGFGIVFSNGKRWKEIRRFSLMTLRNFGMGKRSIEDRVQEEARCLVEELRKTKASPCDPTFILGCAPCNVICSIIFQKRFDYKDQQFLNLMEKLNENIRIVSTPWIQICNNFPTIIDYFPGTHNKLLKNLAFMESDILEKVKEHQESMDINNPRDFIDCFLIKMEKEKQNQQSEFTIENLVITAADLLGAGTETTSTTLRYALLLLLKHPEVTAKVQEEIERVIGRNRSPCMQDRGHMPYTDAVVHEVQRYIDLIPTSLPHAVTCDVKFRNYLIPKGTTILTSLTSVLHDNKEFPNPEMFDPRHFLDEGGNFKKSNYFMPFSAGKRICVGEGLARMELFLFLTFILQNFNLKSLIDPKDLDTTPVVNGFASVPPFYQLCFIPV

[19] = target: Cytochrome P450 2C9 (Homo sapiens, UniProt P11712)
Chain of Cytochrome P450 2C9 (P11712 whole entry): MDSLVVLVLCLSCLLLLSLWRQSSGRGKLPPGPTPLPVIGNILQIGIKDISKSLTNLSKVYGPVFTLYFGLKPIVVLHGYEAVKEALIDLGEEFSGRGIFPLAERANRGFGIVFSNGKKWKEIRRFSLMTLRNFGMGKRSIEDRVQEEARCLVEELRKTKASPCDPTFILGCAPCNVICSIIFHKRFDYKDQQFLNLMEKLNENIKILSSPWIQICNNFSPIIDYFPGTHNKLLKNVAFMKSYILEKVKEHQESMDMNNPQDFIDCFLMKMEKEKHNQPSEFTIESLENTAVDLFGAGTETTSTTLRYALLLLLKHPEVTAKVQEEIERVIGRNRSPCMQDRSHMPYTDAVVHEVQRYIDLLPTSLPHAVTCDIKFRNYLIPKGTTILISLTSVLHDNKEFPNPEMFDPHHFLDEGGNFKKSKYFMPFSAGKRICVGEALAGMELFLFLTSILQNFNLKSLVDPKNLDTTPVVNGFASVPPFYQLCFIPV

[20] = Luminescence Cell-Based Dose Retest to Confirm Inhibitors of Cancer Stem Cells. [Related pubchem assays (depositor defined):AID2717, AID2721]; type: functional; details: Homo sapiens
[21] = reduction of Shn3 3'UTR-driven luciferase in osteoblasts – cell-based, Clone20 osteoblasts, firefly luciferase, cherry-picked, dose response (AID 624132); type: functional;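 note: firefly luciferase luminescence from reporter carrying the Shn3 3'UTR in osteoblasts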
[22] = loss of viability in HepG2 cells – cell-based, CellTiter-Glo, cherry-picked, cytotoxicity control for Shn3 inhibitor project, dose response (AID 624134); type: functional
[23] = non-specific 3'UTR reporter inhibition in Clone20-Shn3RL – cell-based, Renilla luciferase, cherry-picked, counter-screen for Shn3 inhibitor project, dose response (AID 624133); type: functional

**Q.** Which results are given for `Cc1ccc(F)cc1NC(=O)Cc1nn(C)c(=O)c2ccccc12`?
**A.** IC50 [1]: > 100 µM (inactive); IC50 [2]: 12.7 µM (inactive)

**Q.** For `CCCOc1ccc(NC(=O)CC2C(=O)N(Cc3ccccc3)C(=S)N2Cc2cccs2)cc1` (stereo not drawn), which IC50 [3] is on record?
**A.** Its IC50 is 44.4 µM (inactive).

**Q.** And the IC50 [4]?
**A.** Its IC50 is > 69.6 µM (inactive).

**Q.** Which AC50 [5] does the source give for `CCc1cc(=O)oc2c(CNCc3c(F)cccc3Cl)c(O)ccc12` here?
**A.** Its AC50 is 230 µM (active).

**Q.** And the AC50 [6]?
**A.** The AC50 was 54.9 µM (active).

**Q.** What about the AC50 [7] of the same compound?
**A.** Its AC50 is 8.53 µM (active).

**Q.** With `CS(=O)(=O)NN1C(=O)c2ccccc2NC1c1ccccc1` (stereo not drawn) as the compound, how does the IC50 [8] read?
**A.** Its IC50 is > 1.11 µM (active).

**Q.** For `CC1=NN(C(N)=S)C(=O)C1N=Nc1ccc(Br)cc1` (stereo not drawn), which EC50 [9] is on record?
**A.** Its EC50 is > 67.6 µM (inactive).

**Q.** And the EC50 [10]?
**A.** Its EC50 is > 67.6 µM (inactive).

**Q.** With `O=c1c2ccccc2cnn1-c1ccc(Br)cc1` as the compound, how does the EC50 [9] read?
**A.** The EC50 was > 67.5 µM (inactive).

**Q.** And the EC50 [10]?
**A.** The EC50 was > 67.5 µM (inactive).

**Q.** What does the source list for `Cc1ccc2c(Cl)c(C(=O)NC3CC3)sc2c1`?
**A.** IC50 [11]: > 67.5 µM (inactive); IC50 [12]: > 7.49 µM (active)

**Q.** For `COCCNC(=O)/C(C#N)=C/c1cc(C)n(-c2ccc(C)cc2)c1C`, which EC50 [13] is on record?
**A.** Its EC50 is > 67.5 µM (inactive).

**Q.** For `Cc1cc(C(=O)COC(=O)C2=NNC(=O)CC2)c(C)n1CCc1ccccc1`, which IC50 [14] is on record?
**A.** Its IC50 is > 29.9 µM (inactive).

**Q.** And the EC50 [15]?
**A.** The EC50 was 1.58 µM (active).

**Q.** And the IC50 [16]?
**A.** The IC50 was 7.2 µM (active).

**Q.** And the EC50 [17]?
**A.** The EC50 was > 29.9 µM (inactive).

**Q.** With `CCOC(=O)c1[nH]c2cc3c(cc2c1NC(=O)CN1CCc2ccccc2C1)OCO3` as the compound, how does the AC50 [18] read?
**A.** The AC50 was 2.24 µM (inconclusive).

**Q.** What about the IC50 [8] of the same compound?
**A.** Its IC50 is 0.485 µM (active).

**Q.** What about the AC50 [19] of the same compound?
**A.** The AC50 was 7.94 µM (inconclusive).

**Q.** What does the source list for `C=CCC[C@H](Cc1ccc(F)cc1)C(=O)OC[C@@H](Cc1c[nH]c2ccccc12)NC(=O)[C@H](CC=C)CC(=O)N(CCO)Cc1ccccc1`?
**A.** AC50 [20]: 3.42 µM (active); AC50 [21]: 8.66 µM (active); AC50 [22]: 30.9 µM (active); AC50 [23]: 29 µM (active); IC50 [3]: > 7.72 µM (active); IC50 [4]: > 69.5 µM (inactive)
